# Reference: patent publication US6984660B2, “P-thienylbenzylamides as agonists of angiotensin-(1-7) receptors, and methods of their preparation and use” (Aventis Pharma Deutschland GmbH, priority 2001, dated 2006)
# Key:
# [1] = tested on: primarily cultivated endothelial cells derived from bovine aortas; test: Test 2: functional assay, stimulation of intracellular cGMP production in endothelial cells; type: cell-based; details: for EC50: Bos taurus, Endothelial cell, production of intracellular cGMP, marker for NO production and release, radioimmunoassay; for stimulatory effect on cGMP after preincubation with a selective angiotensin-(1-7) receptor antagonist: preincubation with [D-Ala^7]-angiotensin-(1-7); for effect on the production of cGMP after preincubation with an AT1 receptor antagonist: preincubation with angiotensin II AT1 subtype antagonist, such as EXP3174; for effect on the production of cGMP after preincubation with an AT2 receptor antagonist: preincubation with angiotensin II AT2 subtype antagonist, such as PD 123,319
# Description: The stimulatory effect of the compounds of formula (I) on the production of intracellular cGMP, which is a marker for the production and release of NO in endothelial cells, was measured on primarily cultivated endothelial cells derived from bovine aortas, as described, for example, in J. Pharmacol. Exp. Ther. (1992) 262:729-733, herein incorporated by reference.
# After having been enzymatically digested (dispase II; Boehringer, Mannheim) from the bovine aorta, the endothelial cells were taken up in culture medium (Dulbecco's modified Eagle's Ham's F 12 medium 1:1 containing penicillin (10 U/L), streptomycin (10 ug/L), L-glutamine (1 mmol/L), glutathione and L-(+)-ascorbic acid (in each case 5 mg/L) and heat-inactivated fetal calf serum (20%)), washed once (centrifugation at 170×g, 10 min) and resuspended in culture medium. This cell suspension was seeded in 6-well plates (Nunc Intermed, Wiesbaden) (˜250 μg of protein or […] per well), with the wells then being filled with culture medium and the plates kept at 37° C. in an incubator which was moistened and gassed with 95% O2-5% CO2.
# After confluence had been reached (6-8 days after seeding), the culture medium was removed and the cell monolayer was washed twice with warm HEPES/Tyrode's solution. After that, the cells were preincubated, at 37° C. for 15 min, in HEPES/Tyrode's solution containing IBMX (3-isobutyl-1-methylxanthine, 10^−4 mol/L, Serva, Heidelberg). The incubation was started by adding SOD (bovine erythrocyte superoxide dismutase, 3×10^−7 mol/L, Serva, Heidelberg) and the test substances of formula (I) at the given concentrations. After the appropriate incubation time, the incubation medium was aspirated and the cells which remained behind were immediately extracted in 1 N formic acid/acetone (v/v, 15:85) and scraped off. The resulting suspension was ultrasonicated (10 sec) and then centrifuged down (3000×g, 10 min). For the purpose of determining cGMP by means of radioimmunoassay (New England Nuclear, Boston, Mass.), the supernatant was lyophilized and the lyophilisate taken up in sodium acetate buffer (0.05 mol/L; pH 6.2). The content (pmol) of intracellular cGMP was related to mg of cell protein.
Compound,melting point [°C],also measured
"CCNC(=O)NS(=O)(=O)c1sc(CC(C)C)cc1-c1ccc(CN(C(=O)c2ccccc2)[C@H](C(=O)OC)C(C)C)cc1 [Example 4, Methyl 2-N-benzoyl-2-N-[4-[2-(ethylaminocarbonylsulfonamido)-5-isobutyl-3-thienyl]benzyl]amino-3-methyl-L-butyrate]",65,EC50 [1]: 600 nM; stimulatory effect on cGMP after preincubation with a selective angiotensin-(1-7) receptor antagonist [1]: inhibited; effect on the production of cGMP after preincubation with an AT1 receptor antagonist [1]: not influenced; effect on the production of cGMP after preincubation with an AT2 receptor antagonist [1]: not influenced
"CCNC(=O)NS(=O)(=O)c1sc(CC(C)C)cc1-c1ccc(CN(C(=O)c2ccccc2)[C@H](C(=O)OCC)C(C)C)cc1 [Example 5, Ethyl 2-N-benzoyl-2-N-[4-[2-(ethylaminocarbonylsulfonamido)-5-isobutyl-3-thienyl]benzyl]amino-3-methyl-L-butyrate]",88 to 90,
"CCNC(=O)NS(=O)(=O)c1sc(CC(C)C)cc1-c1ccc(CN(C(=O)c2ccccc2)[C@H](C(=O)O)C(C)C)cc1 [Example 6, 2-N-Benzoyl-2-N-[4-[2-(ethylaminocarbonylsulfonamido)-5-isobutyl-3-thienyl]benzyl]amino-3-methyl-L-butyric acid]",149,
"CCNC(=O)NS(=O)(=O)c1sc(CC(C)C)cc1-c1ccc(CN(C(C)=O)[C@H](C(=O)OC)C(C)C)cc1 [Example 9, Methyl 2-N-acetyl-2-N-[4-[2-(ethylaminocarbonylsulfonamido)-5-isobutyl-3-thienyl]benzyl]amino-3-methyl-L-butyrate]",130,EC50 [1]: 40 nM; stimulatory effect on cGMP after preincubation with a selective angiotensin-(1-7) receptor antagonist [1]: inhibited; effect on the production of cGMP after preincubation with an AT1 receptor antagonist [1]: not influenced; effect on the production of cGMP after preincubation with an AT2 receptor antagonist [1]: not influenced
"CCNC(=O)NS(=O)(=O)c1sc(CC(C)C)cc1-c1ccc(CN(C(C)=O)[C@H](C(=O)OCC)C(C)C)cc1 [Example 10, Ethyl 2-N-acetyl-2-N-[4-[2-(ethylaminocarbonylsulfonamido)-5-isobutyl-3-thienyl]benzyl]amino-3-methyl-L-butyrate]",81,
"CCNC(=O)NS(=O)(=O)c1sc(CC(C)C)cc1-c1ccc(CN(C(C)=O)[C@H](C(=O)O)C(C)C)cc1 [Example 11, 2-N-Acetyl-2-N-[4-[2-(ethylaminocarbonylsulfonamido)-5-isobutyl-3-thienyl]benzyl]amino-3-methyl-L-butyric acid]",136,
"CCCCOC(=O)NS(=O)(=O)c1sc(CC(C)C)cc1-c1ccc(CN(C(=O)c2ccco2)[C@H](C(=O)O)C(C)C)cc1 [Example 13, 2-N-(2-Furanoyl)-2-N-[4-[2-(n-butyloxycarbonylsulfonamido)-5-isobutyl-3-thienyl]benzyl]amino-3-methyl-L-butyric acid]",93,
"CNC(=O)NS(=O)(=O)c1sc(CC(C)C)cc1-c1ccc(CN(C(=O)c2ccco2)[C@H](C(=O)OC)C(C)C)cc1 [Example 14, Methyl 2-N-(2-furanoyl)-2-N-[4-[2-(methylaminocarbonylsulfonamido)-5-isobutyl-3-thienyl]benzyl]amino-3-methyl-L-butyrate]",84,
"CNC(=O)NS(=O)(=O)c1sc(CC(C)C)cc1-c1ccc(CN(C(=O)c2ccco2)[C@H](C(=O)O)C(C)C)cc1 [Example 15, 2-N-(2-Furanoyl)-2-N-[4-[2-(methylaminocarbonylsulfonamido)-5-isobutyl-3-thienyl]benzyl]amino-3-methyl-L-butyric acid]",134,
"CCCCOC(=O)NS(=O)(=O)c1sc(CC(C)C)cc1-c1ccc(CN(C(=O)CCC(=O)O)[C@H](C(=O)O)C(C)C)cc1 [Example 17, 2-N-(3-Carboxypropionyl)-2-N-[4-[2-(n-butyloxycarbonylsulfonamido)-5-isobutyl-3-thienyl]benzyl]amino-3-methyl-L-butyric acid]",66,
CNC(=O)NS(=O)(=O)c1sc(CC(C)C)cc1-c1ccc(CN(C(=O)CCC(=O)OC)[C@H](C(=O)OC)C(C)C)cc1 [Example 18],158,
